Read-outs that look alike come from different tables or passages of the source.
Columns and labels:
[1] = Suppression of anxiety (punished licking, conflict test) in the adult male rat; assay type: in vivo, male rats
How it was run: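 Rats were deprived of water for 48 h and food for 24 h, with unpunished training the day before. Testing began at expected peak drug activity: 3-min session, every 20th lick punished by a 0.2-s shock.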

[2] = Suppression of metrazol-induced convulsions; assay type: in vivo, male CD1 mice; details: mice; for ED50: Mus musculus, 0.5 h; for Metrazol (ip) ED50: 30 min
[3] = molecular target: benzodiazepine site of the GABA-A receptor; test: Benzodiazepine Receptor Binding Assay (inhibition of 3H-flunitrazepam binding); details: ca. 3 nM 3H-flunitrazepam
[4] = Table 1, ip, minimum effective dose, >10 = active dose not determined, read-out: Conflict (ip) MED
[5] = Table 1, ip, clonic convulsions after sc CD90 metrazol, >30 = active dose not determined, read-out: Metrazol (ip) ED50
[6] = Table 1, 25° C., 10-20 min, >10,000 = not active
[7] = Table 5, minimum effective dose, read-out: Conflict MED
[8] = Table 5, parenteral, clonic convulsions, read-out: Antimetrazol ED50
[9] = Table 3, minimum effective dose, read-out: Conflict MED
[10] = Table 3, parenteral, clonic convulsions, read-out: Antimetrazol ED50
[11] = Table 1, ip, minimum effective dose, >10 = active dose not determined
[12] = Table 1, ip, clonic convulsions after sc CD90 metrazol, >30 = active dose not determined

Compound | minimal effective dose [1, 4] [mg/kg] | ED50 [2, 5] [mg/kg] | IC50 [3, 6] [nM] | also measured
O=C1CCN2C(=C1C(=O)NN1CCOCC1)Nc1ccccc12 [compound 60] | < 10 | > 10 | 3000 | –
CN(C)c1ccc(NC(=O)C2=C3Nc4ccccc4N3CCCC2=O)cc1 [compound 149] | – | – | – | minimal effective dose [1, 7]: > 10 mg/kg; ED50 [2, 8]: > 10 mg/kg; IC50 ([3]; Table 5): 1120 nM
CC1CN2C(=C(C(=O)Nc3ccccc3)C1=O)N(C)c1ccccc12 (stereo not drawn) [compound 134] | – | – | – | minimal effective dose [1, 9]: > 10 mg/kg; ED50 [2, 10]: 3 mg/kg; IC50 ([3]; Table 3): 67 nM
Nc1ccc(NC(=O)C2=C3Nc4ccccc4N3CCC2=O)cc1 [compound 18] | > 10 | 3 | 13000 | –
1,2-Dihydro-5-ethyl-3-oxo-N-(2-fluorophenyl)-pyrido(1,2-a)benzimidazole-4-carboxamide [CP 123] | – | – | 620 | Conflict (ip) MED [1, 11]: 1 mg/kg; Metrazol (ip) ED50 [2, 12]: 5 mg/kg
O=C1CCCN2C(=C1C(=O)Nc1ccc(F)cc1F)N(Cc1ccccc1)c1ccccc12 [compound 156] | – | – | – | minimal effective dose [1, 7]: > 10 mg/kg; ED50 [2, 8]: > 10 mg/kg; IC50 ([3]; Table 5): 330 nM
CCCN1C2=C(C(=O)Nc3ccc(F)cc3F)C(=O)CCN2c2ccccc21 [compound 131] | – | – | – | minimal effective dose [1, 9]: < 1 mg/kg; ED50 [2, 10]: 0.3 mg/kg; IC50 ([3]; Table 3): 2.6 nM
O=C1CCN2C(=C1C(=O)Nc1ccccc1)N(Cc1ccccc1)c1ccccc12 [compound 127] | – | – | – | minimal effective dose [1, 9]: 10 mg/kg; ED50 [2, 10]: 3 mg/kg; IC50 ([3]; Table 3): 12 nM
O=C1CCCN2C(=C1C(=O)Nc1ccccc1)N(Cc1ccccc1)c1ccccc12 [compound 145] | – | – | – | minimal effective dose [1, 7]: > 10 mg/kg; ED50 [2, 8]: > 10 mg/kg; IC50 ([3]; Table 5): 420 nM
NC(=O)C1=C2Nc3ccccc3N2CCC1=O [compound 29] | 10 | > 3 | 2400 | –
COc1ccc2c(c1)NC1=C(C(=O)Nc3ccncc3)C(=O)CCN12 [compound 57] | > 10 | > 10 | 500 | –
O=C1CCN2C(=C1C(=O)Nc1cccc3ccoc13)Nc1ccccc12 [compound 51] | 10 | > 10 | 120 | –
CN1C2=C(C(=O)Nc3ccccc3F)C(=O)CCN2c2ccccc21 [compound 122] | – | – | – | minimal effective dose [1, 9]: 0.03 mg/kg; ED50 [2, 10]: 0.03 mg/kg; IC50 ([3]; Table 3): < 1 nM
Cc1cc(NC(=O)C2=C3Nc4ccccc4N3CCC2=O)c2ccccc2n1 [compound 76] | > 10 | 10 | 10000 | –
O=C1CCN2C(=C1C(=O)Nc1ccncc1Cl)Nc1ccccc12 [compound 75] | > 10 | 1 to 10 | 220 | –
COc1ccccc1NC(=O)C1=C2Nc3ccccc3N2CCC1=O [compound 26] | > 10 | > 10 | 990 | –
CCN1C2=C(C(=O)Nc3ccccc3)C(=O)CCN2c2ccccc21 [compound 121] | – | – | – | minimal effective dose [1, 9]: < 1 mg/kg; ED50 [2, 10]: < 1 mg/kg; IC50 ([3]; Table 3): < 0.1 nM
CN(C)c1ccccc1NC(=O)C1=C2Nc3ccccc3N2CCC1=O [compound 87] | 10 | 10 | 10000 | –
O=C1CCN2C(=C1C(=O)Nc1ccccn1)Nc1ccccc12 [compound 22] | 10 | 10 | 59 | –
O=C1CCN2C(=C1C(=O)Nc1ccc3c(c1)CCN3)Nc1ccccc12 [compound 33] | 10 | > 30 | 54 | –
CCN1C2=C(C(=O)Nc3ccccc3F)C(=O)CCN2c2ccccc21 [compound 123] | – | – | – | minimal effective dose [1, 9]: 0.3 mg/kg; ED50 [2, 10]: 0.01 mg/kg; IC50 ([3]; Table 3): 2.1 nM
O=C1CCN2C(=C1C(=O)Nc1c(Cl)cccc1Cl)Nc1ccccc12 [compound 14] | > 10 | 30 | 320 | –

Compound | minimal effective dose [1, 4] [mg/kg] | ED50 [2, 5] [mg/kg] | IC50 [3, 6] [nM] | also measured
O=C1CCN2C(=C1C(=O)Nc1ncncn1)Nc1ccccc12 [compound 53] | > 10 | > 10 | 110 | –
O=C1CCN2C(=C1C(=O)Nc1c(F)c(F)nc(F)c1F)Nc1ccccc12 [compound 55] | > 10 | > 10 | 350 | –
O=C1CCN2C(=C1C(=O)Nc1ncc[nH]1)Nc1ccccc12 [compound 99] | > 10 | > 30 | 185 | –
O=C1CCN2C(=C1C(=O)Nc1ccc3[nH]ncc3c1)Nc1ccccc12 [compound 50] | 10 | > 10 | 96 | –
NS(=O)(=O)c1ccc(NC(=O)C2=C3Nc4ccccc4N3CCC2=O)cc1 [compound 61] | 10 | > 10 | 10000 | –
O=C1CCN2C(=C1C(=O)Nc1ccccc1F)N(Cc1ccccc1)c1ccccc12 [compound 128] | – | – | – | minimal effective dose [1, 9]: > 10 mg/kg; ED50 [2, 10]: 1 mg/kg; IC50 ([3]; Table 3): 88 nM
CNC(=O)C1=C2Nc3ccccc3N2CCC1=O [compound 102] | > 10 | > 10 | 400 | –
O=C1CCN2C(=C1C(=O)NC1CCC1)Nc1ccccc12 [compound 83] | 10 | > 30 | 30 | –
O=C1CCN2C(=C1C(=O)NCCc1ccccc1)Nc1ccccc12 [compound 2] | > 10 | 10 to 30 | 280 | –
O=C1CCN2C(=C1C(=O)Nc1nccnn1)Nc1ccccc12 [compound 49] | > 10 | 10 | 54 | –
O=C(Nc1ccccc1)c1c(=O)ccn2c1[nH]c1ccccc12 [compound 138] | – | – | – | minimal effective dose ([1]; Table 4, minimum effective dose, read-out: Conflict MED): 1 to 10 mg/kg; ED50 ([2]; Table 4, parenteral, clonic convulsions, read-out: Antimetrazol ED50): 0.5 mg/kg; IC50 ([3]; Table 4): 24 nM
COc1ccc(NC(=O)C2=C3Nc4ccccc4N3CCC2=O)cc1OC [compound 8] | > 10 | > 30 | 32 | –
CN(C)c1cccc(NC(=O)C2=C3Nc4ccccc4N3CCC2=O)c1 [compound 34] | > 10 | 4 | 37 | –
O=C1CCN2C(=C1C(=O)Nc1ccc(C(=O)O)cc1)Nc1ccccc12 [compound 28] | 10 | > 30 | > 10000 | –
O=C1CCN2C(=C1C(=O)NCc1cccnc1)Nc1ccccc12 [compound 62] | > 10 | > 10 | 155 | –
N-(2-Fluorophenyl)-6-methyl-4-oxo-1,2,3,4-tetrahydro-6H-azepino(1,2-a)benzimidazol-5-carboxamide [CP 147] | – | – | 51 | Conflict (ip) MED [1, 11]: 10 mg/kg; Metrazol (ip) ED50 [2, 12]: 5 mg/kg
CCN1C2=C(C(=O)Nc3ccncc3)C(=O)CCN2c2ccccc21 [compound 133] | – | – | – | minimal effective dose [1, 9]: 3 mg/kg; ED50 [2, 10]: 3 mg/kg; IC50 ([3]; Table 3): 80 nM
Cc1cccc2c1NC1=C(C(=O)Nc3ccncc3)C(=O)CCN12 [compound 88] | > 10 | 10 | 390 | –
O=C1CCCN2C(=C1C(=O)Nc1ccc(F)cc1F)Nc1ccccc12 [compound 155] | – | – | – | minimal effective dose [1, 7]: > 10 mg/kg; ED50 [2, 8]: 10 mg/kg; IC50 ([3]; Table 5): 39 nM
O=C1CCN2C(=C1C(=O)Nc1cnccn1)Nc1ccccc12 [compound 63] | > 10 | > 10 | 360 | –
O=C1CCN2C(=C1C(=O)Nc1cccc3cnccc13)Nc1ccccc12 [compound 65] | > 10 | 10 | 770 | –
O=C1CCN2C(=C1C(=O)Nc1ccc(Br)cc1)Nc1ccccc12 [compound 44] | > 10 | 3 | 130 | –
